We go through eight compounds from ChEMBL document CHEMBL1781916, “p38alpha mitogen-activated protein kinase inhibitors: optimization of a series of biphenylamides to give a molecule suitable for clinical progression” (J Med Chem, 2009).

Where only a bound is given, the exact number is not on record here.

A short description of data set [1]: AUC in Lewis rat 0.25 mg/kg, po. As to conditions: Lewis, plasma.
Data set [2] in a line: Oral bioavailability in Lewis rat at 0.25 mg/kg, po. The class given is ADME, organism-based. The note with it: in vivo.
Data set [3] in a line: Oral bioavailability in mouse. The class given is ADME, organism-based. As to conditions: in vivo.
The nature of data set [4]: Oral bioavailability in cynomolgus monkey at 1.4 mg/kg. The class given is ADME, organism-based, Macaca fascicularis. The note with it: in vivo.
For data set [5], the system named is Rattus norvegicus. Description: AUC in Lewis rat 0.25 mg/kg, po. The note with it: in vivo.
Data set [6] relates to Rattus norvegicus. Description: (§1) Oral bioavailability in Lewis rat at 1 mg/kg. The class given is ADME, organism-based. As to conditions: in vivo.
Data set [7] deals with Rattus norvegicus. Description: Volume of distribution at steady state in Lewis rat at 1 mg/kg, iv. The format is ADME, organism-based. Set-up: dose 1 mg/kg, route intravenous. As to conditions: in vivo.
A short description of data set [8]: Half life in Lewis rat at 0.25 mg/kg, iv and 0.25 mg/kg, po. The class given is ADME, organism-based. The note with it: in vivo.
Data set [9] can be described thus: Ratio of drug level in brain to plasma in Lewis rat at 1 mg/kg, iv and 1 mg/kg, po. The class given is ADME, organism-based. The note with it: read-out: BPR.
Data set [10] is described as follows: Half life in Lewis rat at 1 mg/kg, iv. The format is ADME, organism-based. Set-up: dose 1 mg/kg, route intravenous. As to conditions: in vivo.
Data set [11] can be described thus: Oral bioavailability in dog. The class given is ADME, organism-based, Canis lupus familiaris. As to conditions: in vivo.
Data set [12] is described as follows: (§2) Clearance in Lewis rat at 1 mg/kg, iv. The format is ADME, organism-based. Further details: dose 1 mg/kg, route intravenous. The note with it: Lewis, in vivo.
Data set [13] can be described thus: as §1. The format is ADME, organism-based. As to conditions: Lewis, in vivo.
Data set [14] concerns Rattus norvegicus. The description is as §2. The format is ADME, organism-based. Further details: dose 1 mg/kg, route intravenous. As to conditions: in vivo.
Data set [15] in a line: Clearance in Lewis rat at 0.25 mg/kg, iv. The format is ADME, organism-based. Further details: dose 0.25 mg/kg, route intravenous. The note with it: in vivo.

On to `Cc1c(F)cc(C(=O)NC2CC2)cc1-c1ccc(C(=O)N[C@@H](C)C(C)(C)C)cn1`, for which the AUC (as a rule, the area under the concentration-time curve, a measure of exposure) in [1] worked out at 6 ng·h/mL.

In the case of `Cc1c(F)cc(C(=O)NC2CC2)cc1-c1ccc(C(=O)NCC(C)(C)C)cn1` [LOSMAPIMOD], the bioavailability – broadly, dose-corrected exposure relative to a reference, in per cent – in [2] is 51%; in [3], 59%; in data set [4] it was 35%; in data set [11] it was 55%. This compound also came in with an AUC in data set [5] of 220 ng·h/mL. In addition, the F in data set [6] is listed as 71%. Also, in data set [7], the Vdss (usually the apparent volume that relates the amount in the body to the concentration in plasma or blood) was 0.9 L/kg. The half-life (in general, how long it takes for the measured level to halve) in data set [8] was 1.1 h; in data set [10], 1.2 h. The Kp in [9] came to 0.1.

`Cc1c(F)cc(C(=O)NC2CC2)cc1-c1ccc(C(=O)N[C@H](C)C(C)C)cn1` yielded an AUC in data set [1] of 50 ng·h/mL.

For `Cc1c(F)cc(C(=O)NC2CC2)cc1-c1ccc(C(=O)NCC2CC2)cn1`, the clearance (commonly a measure of how efficiently the substance is removed, as volume per time) in data set [12] turned out to be 2.5 mL/min/kg. The AUC in data set [1] is 810 ng·h/mL. For the same compound, the bioavailability in data set [13] is above 95%. This compound gave a half-life in [10] of 1.9 h.

Turning to `Cc1ccc(C(=O)NC2CC2)cc1-c1ccc(C(=O)NCC2CC2)cn1`, the clearance in data set [14] came to 1.5 mL/min/kg. Moreover, in data set [13], the bioavailability stood at 99%. The compound further showed a half-life in data set [10] of 3 h.

`Cc1c(F)cc(C(=O)NC2CC2)cc1-c1ccc(C(=O)NCC(C)C)cn1` showed a bioavailability in [2] of 56%. The same compound displayed an AUC in data set [1] of 360 ng·h/mL. Moreover, in data set [15], the clearance was determined as 6.4 mL/min/kg. The half-life in data set [8] is 1.1 h.

Take `Cc1c(F)cc(C(=O)NC2CC2)cc1-c1ccc(C(=O)N[C@H](C)C(C)(C)C)cn1`: the AUC in data set [1] was found to be 23 ng·h/mL.

Consider `Cc1c(F)cc(C(=O)NC2CC2)cc1-c1ccc(C(=O)N[C@@H](C)C(C)C)cn1`, for which, in data set [1], the AUC is 8 ng·h/mL.
